Experiments:
[1] = format: in vivo, New Zealand white rabbits; conditions: 1000 IU/h for 5 hours from device
Excerpt: (§1) Devices manufactured according to the present invention were used to study the delivery of insulin, heparin and salmon calcitonin to New Zealand white rabbits weighing between 2.5 kg and 3.5 kg. Hair was removed from the dorsal surface of the animal using an electric clipper twenty-fours prior to application of the device. Arterial blood samples were withdrawn for determination of plasma concentration of drug through an indwelling cannula placed in the ear artery.
Delivery of heparin from devices according to the present invention was studied by administering heparin at a rate of 1000 IU/h for 5 hours. Plasma heparing was assayed using an EIA method.

[2] = Plasma insulin concentration (RIA) in rabbits during device delivery of insulin (Example 3); format: in vivo, New Zealand white rabbits; conditions: 5 IU/h, time=3h
Excerpt: as §1
(§2) Diabetes was induced in test rabbits by administration intravenously of a 150 mg/kg dose of alloxan (monohydrate) to fasted rabbits. The rabbits were provided with a dextrose solution for three days after alloxan administration and after this time normal diet was resumed. Test animals were maintained healthy with a commercial insulin preparation prior to the study. The devices were attached to the rabbits and delivery of insulin at a rate of 5 IU/h was commenced to normoglycaemic animals (for 3 hours) and to diabetic animals (for 3.25 hours). Whole blood glucose concentrations were measured using an Ames glucometer and plasma insulin concentration were measured using a RIA method.

blood glucose [3] = assay: Whole blood glucose concentration (Ames glucometer) in rabbits during device delivery of insulin (Example 3); format: in vivo, New Zealand white rabbits; conditions: normal and diabetic animals; 5 IU/h
Excerpt: as §1, §2

blood glucose [4] = assay: Blood glucose concentration in rabbits after intradermal device infusion of insulin (Example 1, FIG. 19); format: in vivo, rabbit; conditions: for mean blood glucose concentration: control value 6.25 mmol/l
Method: A device according to the present invention containing 0.6 ml of a solution of insulin (100 I.U./ml) was affixed to each of two rabbits and the devices were switched on. The insulin solution was infused at a rate of 0.1 ml/hour for two hours. […] At one hour, mean blood glucose concentration had fallen from a control value of 6.25 mmol/l to 3.2 mmol/l. This value stayed relatively constant at 1.5 hours following activation (2.65 mmol/l) and at 2 hours (2.5 mmol/l), at which time the devices were removed.

[5] = Delivery of calcitonin from device compared with conventional subcutaneous injection (plasma calcitonin by EIA, plasma calcium by photometric analysis); format: in vivo, New Zealand white rabbits
Excerpt: as §1
To compare delivery of calcitonin using devices according to the present invention to conventional delivery, 40 IU calcitonin was delivered to a rabbit over 2 hours from a device according to the present invention and 20 IU calcitonin was delivered by a conventional single subcutaneous injection. In a further study, calcitonin was delivered at a rate of 25 IU/h and 100 IU/h for a period of 6 hours from devices according to the present invention. Plasma concentrations of calcium were measured using a photometric analysis while calcitonin concentrations were measured by an EIA method.

serum calcium = assay: Serum calcium concentration in rabbits after intradermal device infusion of salmon calcitonin (Example 2, FIG. 20); format: in vivo, rabbit; conditions: for mean serum calcium concentration, % of control value: 1.0 mg/ml at 0.1 ml/hour for 6 hours, four rabbits
Method: A device according to the present invention containing 0.6 ml of a solution of salmon calcitonin (1.0 mg/ml) was affixed to each of four rabbits. This solution was infused at the rate of 0.1 ml/hour for 6 hours. Serum calcium concentrations were measured via an ear vein at 0, 0.5, 1, 2, 3, 4, 5 and 6 hours following activation of the device, at which point the device was removed.

## heparin
[1]
  amounts of heparin delivered: significant anticoagulant amounts

## insulin: solution of insulin (100 I.U./ml)
[2]; diabetic (alloxan) rabbits, approximately 10 fmol/ml at time 0
  plasma insulin concentration: approximately 240 fmol/ml
[2]; normal (normoglycaemic) rabbits, approximately 25 fmol/ml at time 0
  plasma insulin concentration: approximately 275 fmol/ml
Blood glucose [3]
  blood glucose concentration, change: corresponding decrease in blood glucose concentration was observed for both normal and diabetic animals
Blood glucose [4]; 1 hour following activation, 100 I.U./ml at 0.1 ml/hour, two rabbits
  mean blood glucose concentration: 3.2 mmol/L
Blood glucose [4]; 1.5 hours following activation, 100 I.U./ml at 0.1 ml/hour
  mean blood glucose concentration: 2.65 mmol/L
Blood glucose [4]; 2 hours following activation (devices removed), 100 I.U./ml at 0.1 ml/hour
  mean blood glucose concentration: 2.5 mmol/L
Blood glucose [4]; later than one hour after device removal
  mean blood glucose, course after device removal: continued to rise with time
Blood glucose [4]; one hour after device removal
  mean blood glucose concentration: 3.7 mmol/L

## salmon calcitonin
[5]; 25 IU/h and 100 IU/h for 6 hours from devices
  delivery of calcitonin, dose proportionality: dose proportional
[5]; 40 IU over 2 hours from device vs 20 IU single subcutaneous injection
  delivery of calcitonin compared with conventional routes: comparable to that from conventional routes
Serum calcium; 0 to 6 hours, 0.1 ml/hour
  mean calcium concentrations, course: fell steadily throughout the period of application
Serum calcium; 5 hours following activation
  mean serum calcium concentration, % of control value: 62.5%
Serum calcium; 6 hours following activation
  mean serum calcium concentration, % of control value: 66.6%
